Ends that are not written are not given here.
system: cell lines described in Example 3 (293T, HeLa, CT26, MCF-7); assay: Cytotoxicity of LMWP peptides, MTT colorimetric assay; format: cell-based, human, murine; settings: FIG. 5; TAT at 5.0 mM and 10.0 mM
Protocol: Cytotoxicity of the LMWP peptides and TDSP5-gelonin conjugates were examined using the cell lines described in Example 3. In brief, cells grown to 75% confluency were incubated with various concentrations of LMWP peptides, TAT peptide, TDSP5-gelonin conjugate, or TAT-gelonin conjugates. Cell proliferation was measured over 3 days, and cytotoxicity was determined using a colorimetric assay, which was performed by removing the cell culture medium and replacing it with PBS containing 5 mg/ml of 3-(4,5-dimethylthiazol-2-yl)-2,5-diphenyltetrazolium bromide (MTT). The absorbance of the cell culture medium following MTT addition was measured at 540 nm, and the survival ratio was determined by the ratio of the absorbance of sample-treated cells to that of control cells.

| Substance | cell cytotoxicity (in words) |
| --- | --- |
| VSRRRRRRGGRRRR [TDSP5] | little or no toxicity |
| ASRRRRRGGRRRR [TDSP4] | little or no toxicity |
| PRRRRR [TDSP2] | little or no toxicity |
| PRRRRSSRRP [TDSP3] | little or no toxicity |
